Measured values reported in ChEMBL document CHEMBL3885861, “Open TG-GATES”.

Species on record: Rattus norvegicus
Assay: Open TG-GATES - Regimen: Daily Repeat
Assay type: toxicity, organism-based, Sprague-Dawley
Parameters: regimen Daily Repeat, gender Male, age 6 weeks
Conditions: in vivo, po, 0 mg/kg, route gavage, dose level Control; for APTT / Bas / Eos / Fbg / Hb / Ht / Lym / MCH / MCHC / MCV / Mono / Neu / PT / Plat / RBC / Ret / WBC: tissue Blood; for KIDNEY_L / KIDNEY_R / KIDNEY_TOTAL: tissue Kidney; for LIVER: tissue Liver; for A/G / ALP / ALT / AST / BUN / CRE / Ca / Cl / DBIL / GLC / IP / K / LDH / Na / PL / RALB / TBIL / TC / TG / TP / gamma-GTP: tissue Plasma

For Cc1cccc(Nc2ccccc2C(=O)O)c1C [MEFENAMIC ACID], the TERMINAL_BW (72 h, time 3 day) was 233.8 g, the APTT (72 h, time 3 day) was 19.9 s and the Bas (72 h, time 3 day) was 0%. It also gave an Eos (72 h, time 3 day) of 0.8%, a Fbg (72 h, time 3 day) of 223.4 mg/dL and a Hb (72 h, time 3 day) of 13.4 g/dL. For the same molecule, the Ht (72 h, time 3 day) was 38.3%, the Lym (72 h, time 3 day) was 76% and the MCH (72 h, time 3 day) was 21.9 pg. For the same molecule, the MCHC (72 h, time 3 day) was 35.1%, the MCV (72 h, time 3 day) was 62.4 fL and the Mono (72 h, time 3 day) was 2.6%. It also gave a Neu (72 h, time 3 day) of 18.2%, a PT (72 h, time 3 day) of 11.9 s and a Plat (72 h, time 3 day) of 118.8 x10_4/uL. The RBC (72 h, time 3 day) was 614 x10_4/ul, the Ret (72 h, time 3 day) was 5.7% and the WBC (72 h, time 3 day) was 105.7 x10_2/uL. It also gave a KIDNEY_L (72 h, time 3 day) of 1 g, a KIDNEY_R (72 h, time 3 day) of 1 g and a KIDNEY_TOTAL (72 h, time 3 day) of 2 g. The LIVER (72 h, time 3 day) was 11.2 g, the A/G (72 h, time 3 day) was 1.6 and the ALP (72 h, time 3 day) was 1029.8 IU/L. It also gave an ALT (72 h, time 3 day) of 35.4 IU/L, an AST (72 h, time 3 day) of 64.2 IU/L and a BUN (72 h, time 3 day) of 14.4 mg/dL. For the same molecule, the CRE (72 h, time 3 day) was 0.4 mg/dL, the Ca (72 h, time 3 day) was 11 mg/dL and the Cl (72 h, time 3 day) was 103.2 meq/L. For the same molecule, the DBIL (72 h, time 3 day) was 0.088 mg/dL, the GLC (72 h, time 3 day) was 193.2 mg/dL and the IP (72 h, time 3 day) was 7.6 mg/dL. For the same molecule, the K (72 h, time 3 day) was 4.2 meq/L, the LDH (72 h, time 3 day) was 173 IU/L and the Na (72 h, time 3 day) was 141 meq/L. For the same molecule, the PL (72 h, time 3 day) was 143.6 mg/dL, the RALB (72 h, time 3 day) was 3.5 g/dL and the TBIL (72 h, time 3 day) was 0.1 mg/dL. For the same molecule, the TC (72 h, time 3 day) was 70.6 mg/dL, the TG (72 h, time 3 day) was 87.4 mg/dL and the TP (72 h, time 3 day) was 5.6 g/dL. For the same molecule, the gamma-GTP (72 h, time 3 day) was 1 IU/L, the TERMINAL_BW ([…], time 7 day) was 261.7 g and the TERMINAL_BW ([…], time 14 day) was 316.1 g. The TERMINAL_BW ([…], time 28 day) was 409.8 g, the APTT ([…], time 7 day) was 18.5 s and the Bas ([…], time 7 day) was 0%. For the same molecule, the Eos ([…], time 7 day) was 0.8%, the Fbg ([…], time 7 day) was 219.2 mg/dL and the Hb ([…], time 7 day) was 13.8 g/dL. For the same molecule, the Ht ([…], time 7 day) was 39.1%, the Lym ([…], time 7 day) was 81.4% and the MCH ([…], time 7 day) was 21.3 pg. The MCHC ([…], time 7 day) was 35.5%, the MCV ([…], time 7 day) was 60.1 fL and the Mono ([…], time 7 day) was 2.8%. For the same molecule, the Neu ([…], time 7 day) was 13.4%, the PT ([…], time 7 day) was 11.7 s and the Plat ([…], time 7 day) was 121.6 x10_4/uL. It also gave an RBC ([…], time 7 day) of 650.6 x10_4/ul, a Ret ([…], time 7 day) of 4.7% and a WBC ([…], time 7 day) of 105 x10_2/uL. For the same molecule, the APTT ([…], time 14 day) was 20.6 s, the Bas ([…], time 14 day) was 0% and the Eos ([…], time 14 day) was 1%. For the same molecule, the Fbg ([…], time 14 day) was 228.8 mg/dL, the Hb ([…], time 14 day) was 14.3 g/dL and the Ht ([…], time 14 day) was 40.5%. For the same molecule, the Lym ([…], time 14 day) was 76.4%, the MCH ([…], time 14 day) was 21.4 pg and the MCHC ([…], time 14 day) was 35.2%. For the same molecule, the MCV ([…], time 14 day) was 60.8 fL, the Mono ([…], time 14 day) was 2.2% and the Neu ([…], time 14 day) was 18.6%. The PT ([…], time 14 day) was 12.1 s, the Plat ([…], time 14 day) was 108.8 x10_4/uL and the RBC ([…], time 14 day) was 667.4 x10_4/ul. For the same molecule, the Ret ([…], time 14 day) was 4.2%, the WBC ([…], time 14 day) was 111.1 x10_2/uL and the APTT ([…], time 28 day) was 19.1 s. For the same molecule, the Bas ([…], time 28 day) was 0%, the Eos ([…], time 28 day) was 1% and the Fbg ([…], time 28 day) was 249 mg/dL. For the same molecule, the Hb ([…], time 28 day) was 15.3 g/dL, the Ht ([…], time 28 day) was 43.8% and the Lym ([…], time 28 day) was 81.4%. For the same molecule, the MCH ([…], time 28 day) was 20.1 pg, the MCHC ([…], time 28 day) was 35% and the MCV ([…], time 28 day) was 57.4 fL. It also gave a Mono ([…], time 28 day) of 2%, a Neu ([…], time 28 day) of 14.4% and a PT ([…], time 28 day) of 11.8 s. For the same molecule, the Plat ([…], time 28 day) was 111.8 x10_4/uL, the RBC ([…], time 28 day) was 763.4 x10_4/ul and the Ret ([…], time 28 day) was 2.7%. The WBC ([…], time 28 day) was 91.7 x10_2/uL, the KIDNEY_L ([…], time 7 day) was 1.1 g and the KIDNEY_R ([…], time 7 day) was 1.1 g. For the same molecule, the KIDNEY_TOTAL ([…], time 7 day) was 2.2 g, the KIDNEY_L ([…], time 14 day) was 1.2 g and the KIDNEY_R ([…], time 14 day) was 1.2 g. It also gave a KIDNEY_TOTAL ([…], time 14 day) of 2.4 g, a KIDNEY_L ([…], time 28 day) of 1.4 g and a KIDNEY_R ([…], time 28 day) of 1.4 g. It also gave a KIDNEY_TOTAL ([…], time 28 day) of 2.9 g, an LIVER ([…], time 7 day) of 11.4 g and an LIVER ([…], time 14 day) of 13.7 g. For the same molecule, the LIVER ([…], time 28 day) was 17.3 g, the A/G ([…], time 7 day) was 1.5 and the ALP ([…], time 7 day) was 908 IU/L. For the same molecule, the ALT ([…], time 7 day) was 38.8 IU/L, the AST ([…], time 7 day) was 69.4 IU/L and the BUN ([…], time 7 day) was 14.8 mg/dL. For the same molecule, the CRE ([…], time 7 day) was 0.4 mg/dL, the Ca ([…], time 7 day) was 10.6 mg/dL and the Cl ([…], time 7 day) was 103.4 meq/L. It also gave a DBIL ([…], time 7 day) of 0.07 mg/dL, a GLC ([…], time 7 day) of 229.4 mg/dL and an IP ([…], time 7 day) of 6.9 mg/dL. For the same molecule, the K ([…], time 7 day) was 3.8 meq/L, the LDH ([…], time 7 day) was 181 IU/L and the Na ([…], time 7 day) was 140.4 meq/L. For the same molecule, the PL ([…], time 7 day) was 135.4 mg/dL, the RALB ([…], time 7 day) was 3.3 g/dL and the TBIL ([…], time 7 day) was 0.1 mg/dL. The TC ([…], time 7 day) was 71 mg/dL, the TG ([…], time 7 day) was 68.2 mg/dL and the TP ([…], time 7 day) was 5.6 g/dL. It also gave a gamma-GTP ([…], time 7 day) of 1 IU/L, an A/G ([…], time 14 day) of 1.5 and an ALP ([…], time 14 day) of 880 IU/L. For the same molecule, the ALT ([…], time 14 day) was 31 IU/L, the AST ([…], time 14 day) was 58.8 IU/L and the BUN ([…], time 14 day) was 16 mg/dL. The CRE ([…], time 14 day) was 0.5 mg/dL, the Ca ([…], time 14 day) was 10.5 mg/dL and the Cl ([…], time 14 day) was 103 meq/L. The DBIL ([…], time 14 day) was 0.092 mg/dL, the GLC ([…], time 14 day) was 233.6 mg/dL and the IP ([…], time 14 day) was 7.1 mg/dL. The K ([…], time 14 day) was 3.9 meq/L, the LDH ([…], time 14 day) was 154.4 IU/L and the Na ([…], time 14 day) was 140.6 meq/L. It also gave a PL ([…], time 14 day) of 142.8 mg/dL, an RALB ([…], time 14 day) of 3.4 g/dL and a TBIL ([…], time 14 day) of 0.2 mg/dL. For the same molecule, the TC ([…], time 14 day) was 73.4 mg/dL, the TG ([…], time 14 day) was 101.4 mg/dL and the TP ([…], time 14 day) was 5.6 g/dL. It also gave a gamma-GTP ([…], time 14 day) of 0.8 IU/L, an A/G ([…], time 28 day) of 1.3 and an ALP ([…], time 28 day) of 665 IU/L. The ALT ([…], time 28 day) was 33.4 IU/L, the AST ([…], time 28 day) was 56.6 IU/L and the BUN ([…], time 28 day) was 18.8 mg/dL. It also gave a CRE ([…], time 28 day) of 0.5 mg/dL, a Ca ([…], time 28 day) of 10.6 mg/dL and a Cl ([…], time 28 day) of 103.4 meq/L. It also gave a DBIL ([…], time 28 day) of 0.1 mg/dL, a GLC ([…], time 28 day) of 242.8 mg/dL and an IP ([…], time 28 day) of 7 mg/dL. The K ([…], time 28 day) was 3.8 meq/L, the LDH ([…], time 28 day) was 111.2 IU/L and the Na ([…], time 28 day) was 140.6 meq/L. The PL ([…], time 28 day) was 151.8 mg/dL, the RALB ([…], time 28 day) was 3.6 g/dL and the TBIL ([…], time 28 day) was 0.2 mg/dL. The TC ([…], time 28 day) was 74.2 mg/dL, the TG ([…], time 28 day) was 141.4 mg/dL and the TP ([…], time 28 day) was 6.2 g/dL. It also gave a gamma-GTP ([…], time 28 day) of 1.6 IU/L.
